Results on 40 compounds are retold here after ChEMBL document CHEMBL5244221, “Synthesis and structure-activity relationship studies of cruzain and rhodesain inhibitors” (Eur J Med Chem, 2018).

Cathepsin S, sequence (P25774 whole entry): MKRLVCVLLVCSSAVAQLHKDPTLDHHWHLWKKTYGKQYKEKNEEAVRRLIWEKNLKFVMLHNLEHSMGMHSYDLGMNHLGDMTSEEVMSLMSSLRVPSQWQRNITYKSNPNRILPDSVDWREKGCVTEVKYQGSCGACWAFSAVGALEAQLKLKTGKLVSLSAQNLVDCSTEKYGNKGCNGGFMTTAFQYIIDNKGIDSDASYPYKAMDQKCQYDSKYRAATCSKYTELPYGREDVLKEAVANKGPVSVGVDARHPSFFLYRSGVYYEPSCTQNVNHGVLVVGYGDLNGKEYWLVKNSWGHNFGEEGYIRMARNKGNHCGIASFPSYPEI

One data set deals with Trypanosoma cruzi. Nature of the data set: Antitrypanosomal activity against Trypanosoma cruzi. In kind it is functional, organism-based.
Conditions: not given
`Cc1nn(C)c2cc(N3CCN(C(=O)[C@@H]4CCCC[C@H]4C(=O)NC4(C#N)CC4)[C@H](C)C3)ccc12` came in with an EC50 of 1300 nM.
The compound `N#CC1(NC(=O)[C@H](Cc2ccccc2)N[C@H](c2ccccc2)C(F)(F)F)CC1` displayed an EC50 of 120 nM.

A further data set has as its system Trypanosoma brucei. Nature of the data set: Antitrypanosomal activity against Trypanosoma brucei assessed as parasite growth inhibition. Format: functional, organism-based.
Conditions: not given
Turning to `CCCCn1cnc2c(Cc3ccc(Cl)c(Cl)c3)nc(C#N)nc21`, the EC50 turned out to be 180 nM.
The same measure, in the same setting: to `CCCCn1cnc2c(Cc3ccc(OC)cc3)nc(C#N)nc21` belongs 390 nM.
Same read-out and setting: to `N#Cc1nc(Cc2ccccc2)c2ncn(CC3CCCCO3)c2n1` (stereo not given) belongs 240 nM.
On the same count and under the same terms, to `CCCCn1cnc2c(Cc3cccc(C)c3)nc(C#N)nc21` belongs 270 nM; to `N#Cc1nc(Cc2ccccc2)c2ncn(Cc3cccc(C(F)(F)F)c3)c2n1`, 260 nM.
On to `N#Cc1nc(Cc2ccc(Cl)c(Cl)c2)c2ncn(CCCO)c2n1`, for which the EC50 came to 110 nM.
Same read-out and setting: to `COC(CCn1cnc2c(Cc3ccc(Cl)c(Cl)c3)nc(C#N)nc21)OC` belongs 220 nM; to `N#Cc1nc(Cc2ccc(Cl)cc2)c2ncn(CCCO)c2n1`, 310 nM.
Take `COc1ccc(Cn2cnc3c(Cc4ccc(Cl)cc4)nc(C#N)nc32)cc1`: the EC50 was 270 nM.
The same measure, in the same setting: to `N#Cc1nc(Cc2ccc(Cl)c(Cl)c2)c2ncn(Cc3ccccc3)c2n1` belongs 260 nM; to `COCCCn1cnc2c(Cc3ccc(Cl)c(Cl)c3)nc(C#N)nc21`, 150 nM.
For the compound `N#Cc1nc(C2CCCCC2)c2ncn(Cc3ccccc3)c2n1`, the EC50 turned out to be 330 nM.
Still for that read-out and setting: for `N#Cc1nc(Cc2ccc(Cl)cc2)c2ncn(Cc3cccc(C(F)(F)F)c3)c2n1` the value was 340 nM.
Same read-out and setting: to `N#Cc1nc(Cc2ccc(Cl)c(Cl)c2)c2ncn(CCCCCO)c2n1` belongs 60 nM.

A further data set deals with T1, Cruzipain (Trypanosoma cruzi, UniProt P25779). In words: Inhibition of Trypanosoma cruzi Cruzain.
T1 sequence (P25779 whole entry): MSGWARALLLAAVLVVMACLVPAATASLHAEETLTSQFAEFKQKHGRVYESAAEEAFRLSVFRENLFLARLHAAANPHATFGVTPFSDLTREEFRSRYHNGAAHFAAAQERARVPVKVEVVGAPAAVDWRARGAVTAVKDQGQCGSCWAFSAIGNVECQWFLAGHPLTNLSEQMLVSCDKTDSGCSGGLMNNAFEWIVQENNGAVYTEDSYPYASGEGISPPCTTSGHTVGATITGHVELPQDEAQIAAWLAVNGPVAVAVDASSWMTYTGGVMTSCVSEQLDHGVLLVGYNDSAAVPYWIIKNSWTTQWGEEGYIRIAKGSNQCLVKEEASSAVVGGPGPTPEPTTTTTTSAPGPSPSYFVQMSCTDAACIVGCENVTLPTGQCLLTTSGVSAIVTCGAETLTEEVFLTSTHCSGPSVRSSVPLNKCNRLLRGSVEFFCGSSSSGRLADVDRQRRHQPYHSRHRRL
Conditions: not given
As for `O=C(COCc1ccccc1Br)NCCc1nc2ccccc2[nH]1`, half-maximal inhibition (IC50) was put at 77.5 µM.
The same measure, in the same setting: to `Clc1ccc2[nH]c3c(NCCCN4CCOCC4)ncnc3c2c1` belongs 2.5 µM.

System in the next data set: not listed separately
Nature of the data set: Lipophilicity, logP of compound. Format: physicochemical. The following applies: octanol/water.
Regarding `CCCCC(C(=O)COc1c(F)c(F)cc(F)c1F)n1cc([C@@](C)(NCc2ccc3ncccc3c2)C(C)C)nn1` (stereo not given in full), the logP amounted to 5.8.

For the next data set, the target named is T2, Rhodesain (Trypanosoma brucei rhodesiense, UniProt Q95PM0). Nature of the data set: Inhibition of Trypanosoma brucei rhodesiense rhodesain expressed in Pichia pastoris measured for 30 mins using Cbz-Phe-Arg-AMC as substrate.
T2 sequence (Q95PM0 whole entry): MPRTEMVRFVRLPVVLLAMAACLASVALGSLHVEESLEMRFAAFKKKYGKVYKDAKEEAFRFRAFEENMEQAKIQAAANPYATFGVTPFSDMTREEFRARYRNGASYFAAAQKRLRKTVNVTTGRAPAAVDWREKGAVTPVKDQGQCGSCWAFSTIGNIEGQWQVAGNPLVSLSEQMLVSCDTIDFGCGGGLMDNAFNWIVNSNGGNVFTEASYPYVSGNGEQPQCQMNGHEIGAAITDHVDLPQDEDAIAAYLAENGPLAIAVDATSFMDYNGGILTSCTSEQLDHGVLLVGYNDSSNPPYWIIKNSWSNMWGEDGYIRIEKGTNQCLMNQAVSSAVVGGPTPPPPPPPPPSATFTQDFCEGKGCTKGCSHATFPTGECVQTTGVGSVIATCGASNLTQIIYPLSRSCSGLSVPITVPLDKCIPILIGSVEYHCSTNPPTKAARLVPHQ
Conditions: not given
`Cc1nc(-c2ccccc2)sc1C(=O)N[C@H](/C=C/S(=O)(=O)c1ccccc1)CCc1ccccc1` yielded an inhibition constant Ki of 6 nM.

A further data set concerns the target T2, Rhodesain. Nature of the data set: Inhibition of Trypanosoma brucei rhodesiense rhodesain.
Conditions: not given
Compound `Clc1ccc2c(NCCN3CCOCC3)ccnc2c1` registered an IC50 of 61 µM.
Turning to `OCCNc1ccnc2cc(Cl)ccc12`, half-maximal inhibition (IC50) was put at 58 µM.
Still for that read-out and setting: to `O=C(CNc1ccnc2cc(Cl)ccc12)N1CCOCC1` belongs 48 µM.
On the same count and under the same terms, to `CCOC(=O)/C=C/[C@@H](O)[C@H](CCc1ccccc1)NC(=O)[C@H](Cc1ccccc1)NC(=O)OCc1ccccc1` belongs 20 µM; to `CCCNc1ccnc2cc(Cl)ccc12`, 34.2 µM; to `OCCCNc1ccnc2cc(Cl)ccc12`, 72 µM.
The same measure, in the same setting: to `CCOC(=O)/C=C\C(=O)[C@H](CC(C)C)NC(=O)[C@H](Cc1ccccc1)NC(=O)OCc1ccccc1` belongs 0.0164 µM.
Regarding `Clc1ccc2c(NCc3ccccc3)ccnc2c1`, the midpoint of inhibition, the IC50, lay at 34 µM.
`NCCNc1ccnc2cc(Cl)ccc12` gave an IC50 of 126 µM.

The subject of another data set is Trypanosoma cruzi. In words: Antitrypanosomal activity against Trypanosoma cruzi assessed as reduction in parasite growth. In kind it is functional, organism-based.
Conditions: not given
Regarding `Clc1ccc2c(NCCN3CCOCC3)ccnc2c1`, the concentration for half-maximal inhibition (IC50) was above 250 µM.
On the same count and under the same terms, to `OCCN1CCN(c2ccnc3cc(Cl)ccc23)CC1` belongs above 250 µM.
The same measure, in the same setting: for `NCCCNc1ccnc2cc(Cl)ccc12` the value was above 250 µM; for `OCCNc1ccnc2cc(Cl)ccc12`, above 250 µM.
`O=C(CNc1ccnc2cc(Cl)ccc12)N1CCOCC1`: the IC50 was above 250 µM.
Regarding `OCCCNc1ccnc2cc(Cl)ccc12`, the IC50 was found to be 6.5 µM.
For `O=C(COCc1ccccc1Br)NCCc1nc2ccccc2[nH]1`, the half-inhibitory concentration (IC50) was 34.6 µM.

The target of the next data set is T1, Cruzipain. Nature of the data set: Binding affinity to Trypanosoma cruzi Cruzain assessed as inhibition constant.
Conditions: not given
With `O=C(COc1ccc2ccccc2c1Br)NCCc1nc2ccccc2[nH]1`, the Ki was found to be 80 nM.
For the compound `N#CCNC(=O)[C@H](Cc1ccccc1)NC(=O)c1cc(Br)ccn1`, the Ki came out at 251 nM.

The next data set concerns the target Cathepsin S (Homo sapiens, UniProt P25774). Nature of the data set: Binding affinity to Cathepsin S (unknown origin) assessed as inhibition constant measured after 22 hrs.
Conditions: not given
As for `O=C(COc1ccccc1F)NCCc1nc2ccccc2[nH]1`, the inhibition constant (Ki) is 360 nM.
As for `O=C(COc1ccccc1I)NCCc1nc2ccccc2[nH]1`, the Ki came to 48 nM.
Same read-out and setting: for `N#Cc1ccccc1OCC(=O)NCCc1nc2ccccc2[nH]1` the value was 220 nM.

Another data set concerns Trypanosoma cruzi. Nature of the data set: Antitrypanosomal activity against Trypanosoma cruzi assessed as inhibition of growth incubated for 4 days by resazurin dye based assay. Format: functional, organism-based. Particulars: 96 h. A general note: Resazurin is reduced to fluorescent resorufin, in cell work by metabolically active cells.
On to `CC(C)(F)C[C@H](N[C@@H](c1ccc(-c2ccc(S(C)(=O)=O)cc2)cc1)C(F)(F)F)C(=O)NC1(C#N)CC1` [ODANACATIB], for which the concentration giving a half-maximal response (EC50) was 2510 nM.

For the next data set, the system named is Trypanosoma brucei brucei. In words: Antitrypanosomal activity against Trypanosoma brucei brucei assessed as parasite growth inhibition. In kind it is functional, organism-based.
Conditions: not given
In the case of `O=C(N[C@@H](Cc1ccccc1)C(=O)N[C@H](/C=C/S(=O)(=O)c1ccccc1)CCCCNS(=O)(=O)c1ccc2ccccc2c1)OCc1ccccc1`, the EC50 was 1180 nM.
`O=C(N[C@@H](Cc1ccccc1)C(=O)N[C@H](/C=C/S(=O)(=O)c1ccccc1)CCCCn1nnc2ccccc21)OCc1ccccc1`: the EC50 is 1880 nM.
Consider `CCCCCCS(=O)(=O)NCCCC[C@@H](/C=C/S(=O)(=O)c1ccccc1)NC(=O)[C@H](Cc1ccccc1)NC(=O)OCc1ccccc1`, for which the EC50 came out at 1220 nM.

In general, EC50 refers to the concentration giving half of the maximal effect. By IC50 is commonly meant the point on the concentration scale where inhibition reaches its midpoint. Broadly, the logP is the decadic logarithm of the partition coefficient of the neutral form, usually between octanol and water. High values mean higher lipophilicity, low ones lower lipophilicity. For orientation: Ki means the dissociation constant of the complex between target and ligand, obtained from inhibition or displacement.
